Data from patent publication US10213428B2, “(4-((3R,4R)-3-methoxytetrahydro-pyran-4-ylamino)piperidin-1-yl)(5-methyl-6-(((2R,6S)-6-(p-tolyl)tetrahydro-2H-pyran-2-yl)methylamino)pyrimidin-4-yl)methanone citrate” (Centrexion Therapeutics Corporation, priority 2015, dated 2019).

Columns and labels:
[1] = In vitro plasma protein binding (equilibrium dialysis), dog; format: in vitro ADME; details: pH 7.4, dialysis 2 hours at 37° C., read-out: Fraction bound (converted)
Description: (§1) Dianorm Teflon dialysis cells (micro 0.2) are used. Each cell consists of a donor (i.e., buffer chamber) and an acceptor chamber (i.e., plasma chamber), separated by an ultrathin semipermeable membrane with a 5 kDa molecular weight cutoff. Stock solutions for each test compound are prepared in DMSO at 1 mM and diluted to a final concentration of 1.0 μM. Aliquots of 200 μL dialysis buffer (100 mM potassium phosphate, pH 7.4) are dispensed into the buffer chamber. Aliquots of 200 μL test compound dialysis solution are dispensed into the plasma chambers. Incubation is carried out for 2 hours under rotation at 37° C. Then, the dialysate is transferred into reaction tubes. The tubes for the buffer fraction contain 0.2 mL acetonitril/water (80/20 volume/volume). Aliquots of 25 μL of the plasma dialysate are transferred into deep well plates and mixed with 25 μL acetonitril/water (80/20 volume/volume), 25 μL buffer, 25 μL calibration solution and 25 μL Internal Standard solution. Protein precipitation is done by adding 200 μL acetonitrile. Aliquots of 50 μL of the buffer dialysate are transferred into deep well plates and mixed with 25 μL blank plasma, 25 μL Internal Standard solution and 200 μL acetonitril. Percent bound is calculated with the formula: % bound=(plasma concentration−buffer concentration/plasma concentration)×100.

plasma protein [2] = assay: as above; format: in vitro ADME; details: 1.0 μM, dialysis 2 hours at 37° C.
Description: as §1

[3] = In vitro plasma protein binding (equilibrium dialysis), human; format: in vitro ADME; details: pH 7.4, dialysis 2 hours at 37° C., read-out: Fraction bound (converted)
Description: as §1

plasma protein [4] = assay: as above; format: in vitro ADME; details: 1.0 μM, dialysis 2 hours at 37° C.
Description: as §1

[5] = In vitro metabolic stability in hepatocyte incubations, rat; format: in vitro ADME; details: hepatocytes (suspension); Rat; predicted from hepatocyte CL intrinsic, well stirred model; read-out: CL, in vivo
Description: (§2) Metabolic degradation of the test compound is assayed in a hepatocyte suspension. Hepatocytes are incubated in an appropriate buffer system. Following a (typically) 30 min preincubation in an incubator (37° C., 10% CO2) 5 μL of test compound solution (1 μM) are added into 395 μL hepatocyte suspension (cell density in the range 0.25-5 Mio cells/mL, typically 1 Mio cells/mL, final DMSO concentration 0.05%). The cells are incubated for six hours (incubator, orbital shaker) and samples (25 μL) are taken at 0, 0.5, 1, 2, 4 and 6 hours. Samples are transferred into acetonitrile and pelleted by centrifugation (5 min). The supernatant is transferred to a new 96-deepwell plate, evaporated under nitrogen and resuspended. Decline of parent compound is analyzed by HPLC-MS/MS. CLint is calculated as follows CL_INTRINSIC=Dose/AUC=(CO/CD)/(AUD+clast/k)×1000/60. […]

hepatocytes [6] = assay: as above; format: in vitro ADME; details: Rat hepatocytes, 1 μM
Description: as §2

[7] = In vitro metabolic stability in hepatocyte incubations, dog; format: in vitro ADME; details: hepatocytes (suspension); Dog; predicted from hepatocyte CL intrinsic, well stirred model; read-out: CL, in vivo
Description: as §2

hepatocytes [8] = assay: as above; format: in vitro ADME; details: Dog hepatocytes, 1 μM
Description: as §2

[9] = In vitro metabolic stability in hepatocyte incubations, human; format: in vitro ADME; details: hepatocytes (suspension); Human; predicted from hepatocyte CL intrinsic, well stirred model; read-out: CL, in vivo
Description: as §2

[10] = Intravenous pharmacokinetics in mouse; format: in vivo, BALB/c mice; details: IV dose 10 μmol/kg, mean values
Excerpt: (§3) The pharmacokinetics of the test compound following single intravenous (IV) or oral (PO) doses were examined in • female BALB/c mice (average weight: 25 g) • male Wistar(Han) rats (average weight: 260 g) • male and female Göttingen Minipigs (average weight: 24 kg) • male beagle dogs (average weight: 15 kg) All non-rodent species were fasted overnight prior to dosing, while mice and rats had food and water available ad libitum. The p.o. dose of the compound was usually administered as suspension in 0.5% Natrosol or as a 0.5% Natrosol/0.015% Tween 80 suspension. For i.v. dosing purposes, the doses were applied as a solution in 0.9% NaCL, or as a solution containing 9.1% HP-beta Cyclodextrin in water.
(§4) Blood was collected by venous sampling and soaking of the blood in EDTA coated tubes. Samples were collected for up to 48 h after administration of the test compound. Plasma was then separated by centrifugation (5 min by approximately 9000 g at 4° C.). For determination of the test compound, plasma was transferred into PCR plates. All samples were stored at approximately −20° C. until bioanalytics. The test compound concentrations in plasma were determined by HPLC MS/MS. The lower limit of quantification was between 0.5 nmol/L and 1 nmol/L.

[11] = Intravenous pharmacokinetics in rat; format: in vivo, Wistar(Han) rats; details: IV dose 5 μmol/kg, mean values
Excerpt: as §3, §4

[12] = Intravenous pharmacokinetics in dog; format: in vivo, beagle dogs; details: IV dose 5 μmol/kg, mean values
Excerpt: as §3, §4

[13] = Oral pharmacokinetics in dog; format: in vivo, beagle dogs; details: oral dose 5 μmol/kg
Excerpt: as §3, §4

U937 cells = assay: In vitro phospholipidosis assay (Nile Red staining, flow cytometry); details: 48 hours incubation
Description: Cell line: U937. Cell density: 0.5 Mio. cells/mL. Amount of medium: 3 mL/well.
3×0.5 mL suspensions of cells are prepared from each sample for flow cytometry measurement (non-fixed cells for viability determination, non-fixed cells and fixed cells for phospholipidosis analysis).
Immediately before measurement, 12.5 μL of the PI ready to use solution is added per sample (0.5 mL non-fixed cell suspension), which are kept on ice for another 15 min before measurement.
Cut-off gates for the fluorescence-dependent differentiation between life and dead cells are defined based on the analysis of cell culture medium plus vehicle exposed Control cells. Cells with a fluorescence lower than the cut-off are defined as viable. Absolute viability of a sample is the relation of viable cells to total cell number and expressed as percentage.
Immediately before measurement, 50 μL of the NR ready to use solution for live cell staining is added per sample (0.5 mL non-fixed cell suspension). Samples are kept on ice for another 5 min. […]
Both the Nile Red stained non-fixed cells as well as the Nile Red stained fixed cells are measured according the following procedure. […]
For each channel, absolute fluorescence intensity of a specific sample is correlated to the mean absolute fluorescence intensity of all cell culture medium plus vehicle exposed Control cells of the respective experiment. […]

[14] = female, BALB/c, plasma, 10 umol/kg
[15] = male, Wistar(Han), plasma, 5 umol/kg
[16] = male, beagle, plasma, 5 umol/kg
[17] = male, beagle, plasma, 5 umol/kg, mean values

CO[C@H]1COCC[C@H]1NC1CCN(C(=O)c2ncnc(NC[C@H]3CCC[C@@H](c4ccc(C)cc4)O3)c2C)CC1 [compound I, (4-((3R,4R)-3-methoxytetrahydro-pyran-4-ylamino)piperidin-1-yl)(5-methyl-6-(((2R,6S)-6-(p-tolyl)tetrahydro-2H-pyran-2-yl)methylamino)pyrimidin-4-yl)methanone]
fraction unbound at 2 h, 1 μM [1]: 0.296
Fraction unbound (plasma protein [2]): 29.6%
fraction unbound at 2 h, 1 μM [3]: 0.153
Fraction unbound (plasma protein [4]): 15.3%
CLhep predicted at 1 μM [5]: 26 mL/min/kg
CL intrinsic, in vitro (hepatocytes [6]): 8.77 μL/min/10e6 cells
CLhep predicted at 1 μM [7]: 14 mL/min/kg
CL intrinsic, in vitro (hepatocytes [8]): 3.15 μL/min/10e6 cells
CLhep predicted at 1 μM [9]: 7.9 mL/min/kg
MRTdisp [10]: 37.4 min
AUC(0-inf) [10, 14]: 1.99 µM·h
clearance [10, 14]: 86 mL/min/kg
Vd ([10]; female, BALB/c, plasma, 10 umol/kg, read-out: Vss): 3.29 L/kg
MRTdisp [11]: 1.49 h
AUC(0-inf) [11, 15]: 1.49 µM·h
clearance [11, 15]: 56.1 mL/min/kg
Vd ([11]; male, Wistar(Han), plasma, 5 umol/kg, read-out: Vss): 5.04 L/kg
MRTdisp [12]: 6.40 h
AUC(0-inf) [12, 16]: 5.99 µM·h
clearance [12, 16]: 14 mL/min/kg
Vd ([12]; male, beagle, plasma, 5 umol/kg, read-out: Vss): 4.94 L/kg
AUC(0-inf) [13, 17]: 1.5 µM·h
Cmax [13, 17]: 317 nM
Tmax [13, 17]: 55 min
MRTtot ([13]; mean values): 5.77 h
F ([13]; oral bioavailability): 25%
lowest phospholipidogenic concentration (U937 cells): 200 µM
phospholipidogenic potential (in words) (U937 cells): propensitiy to be phospholipidogenic
